Test system: A549 cells (human lung cancer cells)
Procedure: The cytotoxicity of ε-polylysines, the coating material used in the invention, to A549 cells (human lung cancer cells, obtained from ATCC) was evaluated. The cytotoxicity to ε-polylysine hydrochloride (Chisso Corp.) was compared with that to α-polylysine hydrobromide (Wako Pure Chemical, average molecular weight 15,000).
A549 cells were seeded on a 96-well microplate at a density of 1×10^4 cells/well. After culturing overnight at 37° C. under 5% CO2 using DME medium (containing 10% bovine embryonic serum), the medium was removed with an aspirator, and 40 μL each of fresh medium 1.25 times more concentrated as standard was added to each well. Finally 10 μL each of a polylysine salt solution that would eventually attain the specified concentration, and cultured at 37° C. for 3 hours.
After the 3-hour culture, the medium was removed again by an aspirator, 100 μL/well of fresh medium was added, and culture continued for 46 hours. The medium was still once more replaced by 110 μL of fresh medium, 10 μL each of Cell Counting Kit-8 (Dojindo Laboratories) was added and continued to be cultured for 2 hours at 37° C. for color reaction. A plate reader (Thermo Labsystems Multiskan Ascent BIF) was used to determine the absorbance at 450 nm (with 650 nm as a reference) and calculate the viability of the cells.

**Q.** For α-polylysine hydrobromide, which “viability of the cells (FIG. 5)” value is on record?
**A.** Its value is “no difference”.

— patent publication US10150945B2, “Cell culture device and manufacturing method therof” (JNC CORPORATION, priority 2004, dated 2018)
